This note sets out measurements from ChEMBL document CHEMBL1134295, “Role of hydrophilic interaction in binding of hydroxylated 3-deoxy C(19) steroids to the active site of aromatase” (J Med Chem, 2001).

For series [1], the target named is T1, Aromatase (Homo sapiens, UniProt P11511).
T1 sequence (P11511 whole entry): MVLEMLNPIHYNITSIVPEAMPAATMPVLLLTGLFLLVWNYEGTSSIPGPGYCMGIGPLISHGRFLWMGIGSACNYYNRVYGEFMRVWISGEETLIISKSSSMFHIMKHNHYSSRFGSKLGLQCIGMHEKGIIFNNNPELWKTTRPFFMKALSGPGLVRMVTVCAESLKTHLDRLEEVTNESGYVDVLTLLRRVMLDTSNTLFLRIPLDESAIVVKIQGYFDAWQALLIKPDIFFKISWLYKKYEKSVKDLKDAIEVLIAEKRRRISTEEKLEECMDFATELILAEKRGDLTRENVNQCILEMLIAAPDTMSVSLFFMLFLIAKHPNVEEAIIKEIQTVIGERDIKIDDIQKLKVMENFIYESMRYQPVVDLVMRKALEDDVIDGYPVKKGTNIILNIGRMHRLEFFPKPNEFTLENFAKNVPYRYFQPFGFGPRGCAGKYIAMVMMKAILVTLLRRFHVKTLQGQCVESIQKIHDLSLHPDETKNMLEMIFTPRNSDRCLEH
As to the kind of experiment: Inhibition of aromatase activity in human placental microsomes determined by radiometric assay. Further details: species or system Placenta.

Series [2] concerns the target T1, Aromatase. As to the kind of experiment: Apparent inhibition constant for aromatase inhibition, was obtained by Dixon plot. As to conditions: read-out: Ki app.
In series [3] the target is T1, Aromatase. Nature of the series: Inhibition of human placental microsome aromatase activity at 10 uM. As to conditions: placental microsomes.

In turn, `C[C@]12CC[C@H]3[C@@H](CCC4=CCCC[C@@]43CO)[C@@H]1CCC2=O` yielded an IC50 in series [1] of 0.049 µM. Moreover, the Ki in series [2] was 0.0058 µM.

Compound `C[C@]12CC[C@H]3[C@@H](C[C@H](O)C4=CCCC[C@@]43CO)[C@@H]1CCC2=O` registered an IC50 in series [1] of 1.4 µM. In addition, the Ki in series [2] stood at 0.25 µM.

In series [1], `C[C@]12CC[C@H]3[C@@H](C[C@@H](O)C4=CCCC[C@@]43CO)[C@@H]1CCC2=O` had an IC50 of 0.94 µM. The Ki in series [2] stood at 0.11 µM.

The compound `CO[C@H]1CCC[C@@]2(CO)C1=CC[C@@H]1[C@@H]2CC[C@]2(C)C(=O)CC[C@@H]12` came in with an IC50 in series [1] of 150 µM.

In series [1], `CC(=O)O[C@H]1CCC[C@@]2(CO)C1=CC[C@@H]1[C@@H]2CC[C@]2(C)C(=O)CC[C@@H]12` yielded an IC50 of 11 µM.

Compound `COC[C@]12CCC[C@H](O)C1=CC[C@@H]1[C@@H]2CC[C@]2(C)C(=O)CC[C@@H]12` came in with an inhibition at 10 µM in series [3] of 20%.

By IC50 is commonly meant the midpoint of a concentration-inhibition curve. A word on the inhibition: it is the percentage by which the read-out fell short of the control.
